Measurements published in patent publication US6500823B1, “Unsaturated hydroximic acid derivatives as per abstract inhibitors” (N-Gene Research Laboratories, Inc., priority 1998, dated 2002).
Where a name gives a salt, the structure may show the parent alone.

Columns and labels:
[1] = target: T1, poly-ADP-ribose polymerase from rat liver (Rattus norvegicus, UniProt P27008); experiment: In vitro PARP inhibition on isolated enzyme; type: biochemical; settings: for IC50: isolated rat liver enzyme, ± SEM from four parallel measurements, read-out: PARP I0.5 mg/l (converted)
T1 construct: We have isolated the poly-ADP-ribose polymerase from rat liver; from tissue; host or cells: rat liver
Method: We have isolated the poly-ADP-ribose polymerase from rat liver according to the article Shah.G. M.,Anal Biochem, 227, 1-13 (1995).
We have determined the PARP activation in 130 μl of reaction mixture, which consists of: 100 mM Tris-HCl puffer, pH 8.0, 10 mM MgCl2, 10% glycerol, 1.5 mM DTT, 100 μg of (32P), or (3H), NAD+, 10 μg of histone. We have stopped the reaction after 10 minutes with 8% perchloric acid and seperated the protein through centrifugation (10 minutes, 10.000×g). We have washed the precipitate with 8% perchloric acid, and we measured the radioactivity connected to the protein with scintillation counter.

HepG2 cells = experiment: LDH enzyme activity in hypoxia exposed HepG2 cells; type: cell-based; settings: Homo sapiens, 30 μg/ml, hypoxia 1% O2 24 hours, Hypoxic control = 100, read-out: Relative LDH content, %
Method: HepG2 cell were cultured in DMEM medium supplemented with 10% FCS in 5% CO2 containing air at 37° C. 10^5 cells were plated in the wells of Costar 24-well culture plates in 1 ml medium. On the following day, cells were treated with the test compounds in a concentration of 30 μg/ml, then cells were exposed to hypoxia treatment (1% O2, 5% CO2 in nitrogen gas) for 24 hours. A part of the control cultures were treated with water used as the solvent, and another part of them was not exposed to hypoxia. At the end of the hypoxic treatment, medium was removed and cells were washed twice with cold PBS. Cells lysates were prepared in 0.05% Triton X-100 containing phosphate buffer (0.05 M) and after centrifugation (2 min. […]) the LDH activity of the supernatant was determined on the basis of NADH consumption in the presence of sodium piruvate substrate.
The LDH activity of the cells treated with the test compounds and compared to the activity of the control exposed to hypoxia is shown in Table 6.

male SPRD rats = experiment: Reperfusion induced arrhythmia after LAD occlusion, survival rate; type: in vivo, rat; settings: for responders at 5 mg/kg: Rattus norvegicus, iv, control 15.38, read-out: % SURV; for effect on survival of reperfusion arrhythmia, in words: compared with Example 2 (100% survival)
Method: Experiments were carried out in male SPRD rats (acceptable body weight range: 300-350 g). The animals were anesthetized with sodium pentobarbital (Nembutal®: 60 mg/kg intraperitoneally) and remained breathing spontaneously. The animals were ventilated with respirator (MTA Kutesz) by using trachea cannule which was inserted after tracheotomy. The standard lead of the ECG II is monitored. Right femoral artery was catheterized and connected to a pressure transducer (BPR-01, Experimetria, Hungary), a preamplifier and pulsotachometer (HG-M, Experimetria, Hungary) for arterial blood pressure and heart rate measurement, respectively. The external jugular vein was cannulated for drug administration. After thoracotomy a silk (braided, coated 4-0) was placed under the left anterior coronary (LAD) artery. After a few minutes' stabilization period, a 5 min occlusion of LAD artery was applied, followed by a 10 min reperfusion period. The survival rate was evaluated.

[2] = target: Moloney murine leukemia virus reverse transcriptase (Moloney murine leukemia virus, UniProt P03355); experiment: Reverse transcriptase inhibition, (3H)dTTP incorporation; type: biochemical; settings: for inhibition at 2 µg/mL: concentration 2 μg/ml
Method: The compounds may be sorted into group of the non-nucleoside type reverse transcriptase inhibitors. Tests were performed on Moloney murine leukemia virus reverse transcriptase that is considered as a good model of the HIV reverse transcriptase enzyme. The experimental assembly was the following.
The assay measures the incorporation of (3H)dTTP into cDNA using poly(dA) template and oligo(dT)12-18 primer. The reaction was carried out in 20 μl volume.
The reaction was started by addition of 5U reverse transcriptase
The reaction mixture was incubated for 40 min at 37° C. Then 15 μl of the reaction mixture was loaded on Whatman DE81 filter discs and filters were washed sequentially with 5% disodium hidrogen phosphate buffer, with water and with 96% (v/v) ethanol. After drying, the filters were placed into scintillation cocktail (OptiPhase, HiSafe, Wallac) and the radioactivity was measured in a Packard Tri-Carb 2200 scintillation counter.
Two compounds with known inhibitory activity were used in the experiments as positive control. AZT is a nucleoside analog while the compound Nevirapin is a non-nucleoside type inhibitor. Nevirapine binds to the so called benzodiazepine binding site of the enzyme. The applied concentrations of the test compounds were in the 0.2-2 μg/ml concentration range.

[3] = system: mouse HSP-70 gene promoter in mouse fibroblast L929 cells; experiment: HSP-70 promoter-luciferase reporter gene assay; type: cell-based; settings: Control = 100; 10 μl of 10^-2 M solution to 1 ml culture, 30 min, 1 hour regeneration
Text: The activity of HSP-70 was studied by reporter gene assay forming a DNA hybrid. To the promoter sequence of HSP-70 encoding the heat shock protein was fused a gene of a protein that can be detected by a well-measurable enzyme activity. Biotechnological processes were used. As reporter gene luciferase enzyme was employed, the activity of which can be well determined by luminescence measurement. If the promoter of the gene of the luciferase enzyme is substituted by the promoter of the HSP-70 gene, then the change in the activity of the luciferase enzyme i.e. the change of the frequency of the transcription from the gene correlates with the frequency of the transcription of the HSP-70 gene that proceeds in the given circumstances. In this way, if a substance or process influences the expression of the HJSP-70 gene, the effect can be studied through the measurement of the luciferase enzyme activity. The effect of the substances to be tested on the HSP-70 expression was studied in such an experimental system.
A double-stranded DNA circular molecule i.e. a plasmid containing the HSP-70 reporter gene was constructed to perform the measurements. An almost 600 bp long sequence of the mouse HSP-70 gene promoter (5′ direction from the start site of the gene) was fused to the coding sequence of the luciferase gene originated from Photymus pyralis. The applied promoter sequence contained several protein binding sites facilitating the expression of the HSP-70 gene. The HSP promoter-luciferase heterologous gene construct was built in a pBR based plasmid vector that can be selected for neomycin. This HSP-70-luciferase plasmid was transfected into mouse fibroblast L929 cells. The assay was performed as follows.
The HSP-70-luc plasmid containing L929 cells are grown in DMEM (Dulbecco's Modified Eagle's Medium) medium supplemented with 5% FCS (Fetal Calf Serum). 10^4 cells are plated in the wells of a 24-well Costar cell culture plate in 1 ml of culture medium. Test substances are dissolved in PBS (Phosphate Buffered Saline) in 10^−2 M concentration. After attachment of the cells (3-4 hours after plating) 10 μl of the solution are given to the cultures and cells are incubated for 30 min. at 37° C. in a CO2 thermostat. Culture medium is then changed for fresh one (without test substance) and cells are allowed to regenerate for 1 hour at 37° C., then once washed with PBS. After removal of PBS 40 μl of 1× lysis buffer are added to the cells, and the samples are kept on ice for 30 minutes. Then the samples are transferred into Eppendorf vials and centrifuged at 14000 rpm for 20 min at 4° C. 5 μl of the supernatant is added to 25 μl of luciferase assay buffer and the luminescence of the samples is measured for 25 seconds in a luminometer.

T1 sequence (P27008 whole entry): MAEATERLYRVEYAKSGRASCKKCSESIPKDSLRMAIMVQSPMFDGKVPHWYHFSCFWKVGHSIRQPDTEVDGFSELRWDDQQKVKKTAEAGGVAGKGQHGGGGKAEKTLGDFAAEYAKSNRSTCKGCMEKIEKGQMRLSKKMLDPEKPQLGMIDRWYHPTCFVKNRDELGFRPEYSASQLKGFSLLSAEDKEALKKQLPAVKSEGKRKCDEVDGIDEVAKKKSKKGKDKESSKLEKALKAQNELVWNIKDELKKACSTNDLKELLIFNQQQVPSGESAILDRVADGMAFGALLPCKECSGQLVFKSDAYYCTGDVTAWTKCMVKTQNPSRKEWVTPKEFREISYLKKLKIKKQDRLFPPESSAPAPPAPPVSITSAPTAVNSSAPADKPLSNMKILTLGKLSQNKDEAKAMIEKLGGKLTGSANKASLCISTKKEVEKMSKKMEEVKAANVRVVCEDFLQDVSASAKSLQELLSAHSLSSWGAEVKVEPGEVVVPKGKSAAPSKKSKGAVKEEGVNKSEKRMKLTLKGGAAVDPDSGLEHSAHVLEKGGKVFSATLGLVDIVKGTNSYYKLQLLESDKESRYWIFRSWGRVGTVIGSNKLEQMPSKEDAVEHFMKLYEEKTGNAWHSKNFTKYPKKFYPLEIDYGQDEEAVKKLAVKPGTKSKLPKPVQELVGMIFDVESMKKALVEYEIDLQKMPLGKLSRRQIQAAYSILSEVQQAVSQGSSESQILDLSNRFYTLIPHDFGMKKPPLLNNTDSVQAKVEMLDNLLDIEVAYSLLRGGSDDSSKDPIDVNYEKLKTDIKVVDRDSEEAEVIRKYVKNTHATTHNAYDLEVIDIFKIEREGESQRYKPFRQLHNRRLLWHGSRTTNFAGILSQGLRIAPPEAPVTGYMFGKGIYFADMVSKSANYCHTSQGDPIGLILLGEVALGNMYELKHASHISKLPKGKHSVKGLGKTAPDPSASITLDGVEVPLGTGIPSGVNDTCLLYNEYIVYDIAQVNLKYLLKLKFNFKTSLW

SMILES: NC(C=C1CCCCC1)=NOCC(O)CN1CCCCC1 (stereo not drawn) [Example 19, O-(3-Piperidino-2-hydroxy-propyl)cyclohexyldene Acetamidoxime]
- PARP inhibitor classification in words ([1]; conclusion on Table 1): very poor PARP inhibitor
- IC50 [1]: 609 µM

SMILES: COc1ccc(C=CC(N)=NOCC(O)CN2CCCC2)cc1OC (stereo not drawn) [Example 16, O-(3-Pyrrolidino-2-hydroxy-propyl)-3,4-dimethoxycinnamic Acid Amidoxime Dihydrochloride]
- activity at 30 µg/mL (HepG2 cells): 120%
- IC50 [1]: 51.5 µM

SMILES: NC(C=Cc1cccnc1)=NOCC(O)CN1CCCC1 (stereo not drawn) [Example 17, O-(3-Pyrrolidino-2-hydroxy-propyl)-3-(3-pyridyl)acrylic Acid Amidoxime Hydrochloride]
- activity at 30 µg/mL (HepG2 cells): 118%
- IC50 [1]: 51.7 µM

SMILES: NC(C=Cc1cccnc1)=NOCC(O)CN1CCOCC1 (stereo not drawn) [Example 10, O-(3-Morpholino-2-hydroxy-propyl)-3-(3-pyridyl)-acrylic Acid Amidoxime Hydrochloride]
- IC50 [1]: 55.5 µM

SMILES: OC(CON=C(Cl)C=Cc1cccnc1)CN1CCOCC1 (stereo not drawn) [Example 33, N-(3-Morpholino-2-hydroxy-propoxy)-3-(3-pyridyl)acrylimidoyl Chloride Hydrogen Maleate]
- IC50 [1]: 15.8 µM

SMILES: COc1ccc(C=CC(N)=NOCC(O)CN2CCOCC2)cc1OC (stereo not drawn) [Example 9, O-(3-Morpholino-2-hydroxy-propyl-3,4-dimethoxycinnamic Acid Amidoxime Hydrochloride]
- IC50 [1]: 35.6 µM

SMILES: NC(C=Cc1ccccc1)=NOCC(O)CN1CCc2ccccc2C1 (stereo not drawn) [Example 11, O-[3-(1,2,3,4-Tetrahydro-2-isoquinolyl)-2-hydroxy-propyl)]cinnamic Acid Amidoxime Dihydrochloride]
- activity at 30 µg/mL (HepG2 cells): 124%
- responders at 5 mg/kg (male SPRD rats): 20%
- IC50 [1]: 51.2 µM

SMILES: NC(C=Cc1ccccc1)=NOCC(O)CN1CCOCC1 (stereo not drawn) [Example 7, O-(3-Morpholino-2-hydroxy-propyl)-cinnamic Acid Amidoxime]
- activity at 30 µg/mL (HepG2 cells): 141%
- responders at 5 mg/kg (male SPRD rats): 42%
- IC50 [1]: 22.9 µM

SMILES: CC(C)(C)NCC(O)CON=C(Cl)C=Cc1cccnc1 (stereo not drawn) [Example 31, N-(3-t.Butylamino-2-hydroxy-propoxy)-3-(3 pyridyl)acrylimidoyl Chloride Hydrogen Maleate]
- IC50 [1]: 19.2 µM

SMILES: COc1ccc(C=CC(N)=NOCC(O)CN2CCCCC2)cc1OC (stereo not drawn) [Example 18, O-(3-Piperidino-2-hydroxy-propyl)-3,4-dimethoxycinnamic Acid Amidoxime]
- responders at 5 mg/kg (male SPRD rats): 67%
- effect on survival of reperfusion arrhythmia, in words (male SPRD rats): similarly outstanding effect
- IC50 [1]: 93.8 µM

SMILES: OC(CON=C(Cl)C=Cc1ccccc1)CN1CCCC1 (stereo not drawn) [Example 26, N-(3-Pyrrolidino-2-hydroxy-propoxy)-3-phenyl Acrylimidoyl Chloride]
- activity at 30 µg/mL (HepG2 cells): 112%

SMILES: COc1ccc(C=CC(N)=NOCC(O)CNC(C)(C)C)cc1OC (stereo not drawn) [Example 8, O-(3-t.Butylamino-2-hydroxy-propyl)-3,4-dimethoxycinnamic Acid Amidoxime Dihydrochloride]
- activity at 30 µg/mL (HepG2 cells): 116%
- responders at 5 mg/kg (male SPRD rats): 37.5%
- IC50 [1]: 28.5 µM

SMILES: NC(C=Cc1cccnc1)=NOCC(O)CN1CCCCC1 (stereo not drawn) [Example 5, O-(3-Piperidino-2-hydroxy-propyl)-3-(3-Pyridyl)acrylic Acid Amidoxime Dihydrochloride]
- inhibition at 1 µg/mL ([2]; concentration 1.0 μg/ml, read-out: Enzyme inhibition, %): 52%
- inhibition at 2 µg/mL ([2]; read-out: Enzyme inhibition, %): 57%
- reverse transcriptase inhibiting effect compared with Nevirapin and AZT, in words ([2]; dose dependent, lower than AZT): higher than that of Nevirapin
- responders at 5 mg/kg (male SPRD rats): 50%
- Activity (HSP-70 promoter luciferase) [3]: 199
- IC50 [1]: 58.1 µM

SMILES: Cc1ccnc2c1NC(=O)c1cccnc1N2C1CC1 [Nevirapin, reference compound]
- inhibition at 0.2 µg/mL ([2]; concentration 0.2 μg/ml, read-out: Enzyme inhibition, %): 21%
- inhibition at 2 µg/mL ([2]; read-out: Enzyme inhibition, %): 26%

SMILES: CC(C)(C)NCC(O)CON=C(N)C=Cc1cccnc1 (stereo not drawn) [Example 14, O-(3-t.Buthylamino-2-hydroxy-propyl)-3-(3-pyridyl)acrylic Acid Amidoxime Dihydrochloride]
- responders at 5 mg/kg (male SPRD rats): 43%
- IC50 [1]: 44.5 µM

SMILES: NC(C=Cc1ccccc1)=NOCC(O)CN1CCCC1 (stereo not drawn) [Example 15, O-3-Pyrrolidino-2-hydroxy-propyl) Cinnamic Acid Amidoxime dihydrochloride]
- Activity (HSP-70 promoter luciferase) [3]: 115
- IC50 [1]: 65.7 µM

SMILES: ClC(C=Cc1cccnc1)=NOCCCN1CCCCC1.O=C(O)/C=C\C(=O)O [Example 32, N-(3-Piperidino-propoxy)-3-(3-pyridyl)acrylimidoyl Chloride Hydrogen Maleate]
- responders at 5 mg/kg (male SPRD rats): 71.4%
- effect on survival of reperfusion arrhythmia, in words (male SPRD rats): similarly outstanding effect

SMILES: CC(C)(C)NCC(O)CON=C(N)C=Cc1ccccc1 (stereo not drawn) [Example 6, O-(3-t.Buthylamino-2-hydroxy-propyl)-cinnamic Acid Amidoxime]
- Activity (HSP-70 promoter luciferase) [3]: 302
- IC50 [1]: 27.5 µM

SMILES: COc1ccc(C=CC(N)=NOCC(O)CN2CCc3ccccc3C2)cc1OC (stereo not drawn) [Example 12, O-[3-(1,2,3,4-Tetrahydro-2-isoquinolyl)-2-hydroxy-propyl]-3,4-dimethoxy-cinnamic Acid Amidoxime Dihydrochloride]
- IC50 [1]: 19.4 µM

SMILES: NC(C=Cc1cccnc1)=NOCC(O)CN1CCc2ccccc2C1 (stereo not drawn) [Example 13, O-(3-(1,2,3,4-Tetrahydro-2-isoquinolyl)-2-hydroxy-propyl)-3-(3-pyridyl) Acrylic Acid Amidoxime Dihydrochloride]
- Activity (HSP-70 promoter luciferase) [3]: 156
- IC50 [1]: 34 µM
